Source: ChEMBL document CHEMBL3868595, “Plazomicin is effective in a non-human primate pneumonic plague model” (Bioorg Med Chem, 2016)

Key:
African green monkey [1] = assay: Toxicity in African green monkey 7653 model infected with Yersinia pestis Colorado 92 assessed as blood urea nitrogen level at 25 mg/kg, iv administered within 6 hrs post onset of sustained fever as 30 mins infusion for 10 days (reference value: 22 mg/dl); type: organism-based; details: chlorocebus sabaeus, in vivo
Yersinia pestis [2] = assay: Antibacterial activity against Yersinia pestis Colorado 92 infected in African green monkey C2083 model assessed as bacterial burden in liver at 12.5 mg/kg, iv administered within 6 hrs post onset of sustained fever as 30 mins infusion for 5 days (reference value: 5.2 10^8CFU/g); type: functional, CO92
[3] = AUC (0 to 24 hrs) in African green monkey blood at 25 mg/kg administered as iv infusion twice daily for 7 consecutive days measured on day 1 by LC-MS/MS analysis; type: ADME, organism-based; parameters: dose 25 mg/kg, time < 24 hr, route intravenous; details: chlorocebus aethiops
African green monkey [4] = assay: Toxicity in African green monkey B6140 model infected with Yersinia pestis Colorado 92 assessed as serum lactate dehydrogenase level at 25 mg/kg, iv administered within 6 hrs post onset of sustained fever as 30 mins infusion for 10 days (reference value: 290 IU/L); type: organism-based; details: chlorocebus sabaeus, in vivo
Yersinia pestis [5] = assay: Antibacterial activity against Yersinia pestis Colorado 92 infected in African green monkey B6672 model assessed as bacterial burden in kidney at 12.5 mg/kg, iv administered within 6 hrs post onset of sustained fever as 30 mins infusion for 5 days (reference value: 7.1 10^7CFU/g); type: functional, CO92
Yersinia pestis [6] = assay: Antibacterial activity against Yersinia pestis Colorado 92 infected in African green monkey B6988 model assessed as bacterial burden in kidney at 6.25 mg/kg, iv administered within 6 hrs post onset of sustained fever as 30 mins infusion for 5 days (reference value: 7.1 10^7CFU/g); type: functional, CO92
Yersinia pestis [7] = assay: Antibacterial activity against Yersinia pestis Colorado 92 infected in African green monkey B6415 model assessed as bacterial burden in spleen at 25 mg/kg, iv administered within 6 hrs post onset of sustained fever as 30 mins infusion for 5 days (reference value: 1.6 10^9CFU/g); type: functional, CO92
[8] = Volume of distribution at steady state in African green monkey blood at 35 mg/kg administered as iv infusion twice daily for 7 consecutive days measured on day 7 by LC-MS/MS analysis; type: ADME, organism-based; details: chlorocebus aethiops, read-out: Vdss
Yersinia pestis [9] = assay: Antibacterial activity against Yersinia pestis Colorado 92 infected in African green monkey B6861 model assessed as bacterial burden in spleen at 6.25 mg/kg, iv administered within 6 hrs post onset of sustained fever as 30 mins infusion for 5 days (reference value: 1.6 10^9CFU/g); type: functional, CO92
African green monkey [10] = assay: Toxicity in African green monkey B6127 model infected with Yersinia pestis Colorado 92 assessed as tubule damage at 25 mg/kg, iv administered within 6 hrs post onset of sustained fever as 30 mins infusion for 10 days by hematoxylin staining based assay; type: organism-based; details: chlorocebus sabaeus, in vivo
African green monkey [11] = assay: Toxicity in African green monkey B6291 model infected with Yersinia pestis Colorado 92 assessed as serum creatinine level at 25 mg/kg, iv administered within 6 hrs post onset of sustained fever as 30 mins infusion for 10 days (reference value: 0.6 mg/dl); type: organism-based; details: chlorocebus sabaeus, in vivo
African green monkey [12] = assay: Toxicity in African green monkey B6127 model infected with Yersinia pestis Colorado 92 assessed as dehydration at 25 mg/kg, iv administered within 6 hrs post onset of sustained fever as 30 mins infusion for 10 days; type: organism-based; details: chlorocebus sabaeus, in vivo
[13] = Toxicity in African green monkey B6291 model infected with Yersinia pestis Colorado 92 assessed as total white blood cell count at 25 mg/kg, iv administered within 6 hrs post onset of sustained fever as 30 mins infusion for 10 days (reference value: 12 10^3/microL); type: organism-based; details: chlorocebus aethiops, in vivo
African green monkey [14] = assay: Toxicity in African green monkey 7653 model infected with Yersinia pestis Colorado 92 assessed as serum lactate dehydrogenase level at 25 mg/kg, iv administered within 6 hrs post onset of sustained fever as 30 mins infusion for 10 days (reference value: 319 IU/L); type: organism-based; details: chlorocebus sabaeus, in vivo
Yersinia pestis [15] = assay: Antibacterial activity against Yersinia pestis Colorado 92 infected in African green monkey B6889 model assessed as bacterial burden in tracheobronchial lymph nodes at 6.25 mg/kg, iv administered within 6 hrs post onset of sustained fever as 30 mins infusion for 5 days (reference value: 7.7 10^9CFU/g); type: functional, CO92, Lymph node
[16] = Toxicity in African green monkey 8067 model infected with Yersinia pestis Colorado 92 assessed as total white blood cell count at 25 mg/kg, iv administered within 6 hrs post onset of sustained fever as 30 mins infusion for 10 days (reference value: 10 10^3/microL); type: organism-based; details: chlorocebus aethiops, in vivo
Yersinia pestis [17] = assay: Antibacterial activity against Yersinia pestis Colorado 92 infected in African green monkey B6127 model assessed as bacterial burden in lung at 25 mg/kg, iv administered within 6 hrs post onset of sustained fever as 30 mins infusion for 10 days (reference value: 7.7 10^8CFU/g); type: functional, organism-based; details: CO92
African green monkey [18] = assay: Toxicity in African green monkey 7972 model infected with Yersinia pestis Colorado 92 assessed as serum creatinine level at 25 mg/kg, iv administered within 6 hrs post onset of sustained fever as 30 mins infusion for 10 days (reference value: 0.8 mg/dl); type: organism-based; details: chlorocebus sabaeus, in vivo
Yersinia pestis [19] = assay: Antibacterial activity against Yersinia pestis Colorado 92 infected in African green monkey B6672 model assessed as bacterial burden in liver at 12.5 mg/kg, iv administered within 6 hrs post onset of sustained fever as 30 mins infusion for 5 days (reference value: 5.2 10^8CFU/g); type: functional, CO92
Yersinia pestis [20] = assay: Antibacterial activity against Yersinia pestis Colorado 92 infected in African green monkey B6672 model assessed as bacterial burden in heart at 12.5 mg/kg, iv administered within 6 hrs post onset of sustained fever as 30 mins infusion for 5 days (reference value: 2.6 10^7CFU/g); type: functional, CO92
Yersinia pestis [21] = assay: Antibacterial activity against Yersinia pestis Colorado 92 infected in African green monkey B6872 model assessed as bacterial burden in brain at 25 mg/kg, iv administered within 6 hrs post onset of sustained fever as 30 mins infusion for 5 days (reference value: 1.9 10^6CFU/g); type: functional, CO92
African green monkey [22] = assay: Toxicity in African green monkey 7972 model infected with Yersinia pestis Colorado 92 assessed as serum alanine aminotransferase level at 25 mg/kg, iv administered within 6 hrs post onset of sustained fever as 30 mins infusion for 10 days (reference value: 30 IU/L); type: organism-based; details: chlorocebus sabaeus, in vivo
Yersinia pestis [23] = assay: Antibacterial activity against Yersinia pestis Colorado 92 infected in African green monkey B6469 model assessed as bacterial burden in liver at 25 mg/kg, iv administered within 6 hrs post onset of sustained fever as 30 mins infusion for 5 days (reference value: 5.2 10^8CFU/g); type: functional, organism-based; details: CO92
African green monkey [24] = assay: Toxicity in African green monkey 7337 model infected with Yersinia pestis Colorado 92 assessed as serum alanine aminotransferase level at 25 mg/kg, iv administered within 6 hrs post onset of sustained fever as 30 mins infusion for 10 days (reference value: 55 IU/L); type: organism-based; details: chlorocebus sabaeus, in vivo
[25] = Elimination half life in African green monkey blood at 35 mg/kg administered as iv infusion twice daily for 7 consecutive days measured on day 1 by LC-MS/MS analysis; type: ADME, organism-based; details: chlorocebus aethiops, read-out: beta t1/2 (converted)
Yersinia pestis [26] = assay: Antibacterial activity against Yersinia pestis Colorado 92 infected in African green monkey B6127 model assessed as bacterial burden in liver at 25 mg/kg, iv administered within 6 hrs post onset of sustained fever as 30 mins infusion for 10 days (reference value: 5.2 10^8CFU/g); type: functional, CO92

SMILES: CN[C@@H]1[C@@H](O)[C@@H](O[C@@H]2[C@@H](O)[C@H](O[C@H]3OC(CNCCO)=CC[C@H]3N)[C@@H](N)C[C@H]2NC(=O)[C@@H](O)CCN)OC[C@]1(C)O [PLAZOMICIN]
- Activity (African green monkey [1]): 26 mg/dL
- Activity (Yersinia pestis [2]): 4.5 ×10⁹ CFU/g
- AUC(0-t) at 24 h [3]: 185 µg·h/mL
- Activity (African green monkey [4]): 379 IU/L
- Activity (Yersinia pestis [5]): 25 CFU/g
- Activity (Yersinia pestis [6]): 23 CFU/g
- Activity (Yersinia pestis [7]): 90 CFU/g
- Vd [8]: 0.31 L/kg
- Activity (Yersinia pestis [9]): 95 CFU/g
- Activity (African green monkey [10]): Toxic
- Activity (African green monkey [11]): 0.5 mg/dL
- Activity (African green monkey [12]): Toxic
- Activity [13]: 5.9 ×10³ /uL
- Activity (African green monkey [14]): 426 IU/L
- Activity (Yersinia pestis [15]): 3.6 ×10⁹ CFU/g
- Activity [16]: 9.4 ×10³ /uL
- Activity (Yersinia pestis [17]): Below limit of detection
- Activity (African green monkey [18]): 0.7 mg/dL
- Activity (Yersinia pestis [19]): 76 CFU/g
- Activity (Yersinia pestis [20]): 29 CFU/g
- Activity (Yersinia pestis [21]): 4.1 ×10⁶ CFU/g
- Activity (African green monkey [22]): 36 IU/L
- Activity (Yersinia pestis [23]): Below limit of detection
- Activity (African green monkey [24]): 44 IU/L
- half-life [25]: 1.7 h
- Activity (Yersinia pestis [26]): 44 CFU/g
